We go through 17 compounds from US9227971B2, “Pyrazolo[1,5-a]pyrimidine compounds as mTOR inhibitors” (Merck Sharp & Dohme Corp., priority 2010, dated 2016).

This experiment concerns phosphorylated AKT Ser473 (pAKT S473), mTORC2 activity, PC3 cells. Briefly: mTOR target engagement assay, immunofluorescent cell-based, pAKT S473 readout (mTORC2 activity). The method, then: The target engagement of mTOR kinase inhibitors was evaluated using an immunofluorescent cell-based assay. In this assay, inhibition of mTORC1 activity was measured by the reduction in the level of phosphorylated 4E-BP1^[…] (p4E-BP1 Thr37/46), and inhibition of mTORC2 activity was measured by the reduction of phosphorylated AKT^Ser473 (pAKT S473).
PC3 cells (prostate tumor cell-line that contains a mutation in the tumor suppressor PTEN, that promotes the phosphorylation and activation of AKT and 4E-BP1) were used in the immunofluorescence assay. […] PC3 cells were then treated with 40 μl of the serially diluted test compounds (in 5% fetal bovine serum, F12 medium containing 0.25% DMSO) for ninety minutes at 37° C. The test compound solution was removed, and the plates were washed gently two times with 25 μl phosphate buffered saline (PBS). […] 5% Goat serum in PBS/0.3% Triton was used to block non-specific binding (60 minutes).
The primary antibodies targeting pAKT S473 and p4E-BP1 Thr37/46 were diluted into PBS/0.3% Triton and incubated with the cells overnight at 4° C. […] Plates were washed three times with PBS/0.1% Tween 20 before adding the secondary antibody at a 1:200 dilution.
Finally, the plates were washed three times with PBS/0.1% Tween 20 and the fluorescent intensity was read using an Analyst HT from Molecular Devices.

[1] abbreviates: Homo sapiens, PC-3, PC3 cells, compound treatment ninety minutes at 37° C.
Setting [2] is: Homo sapiens, PC-3, Table 6-1, PC3 cells.

One may read the IC50 as the concentration that gives 50% inhibition. For `Cn1cnc(-c2ccc(-c3cnn4c(N)c(C5CC5)c([C@@H]5C[C@H]6CC[C@@H](C5)N6C(=O)c5nnc[nH]5)nc34)cn2)c1` [Compound 4.23, ((1R,3a,5S)-3-(7-amino-6-cyclopropyl-3-(6-(1-methyl-1H-imidazol-4-yl)pyridin-3-yl)pyrazolo[1,5-a]pyrimidin-5-yl)-8-azabicyclo[3.2.1]octan-8-yl)(4H-1,2,4-triazol-3-yl)methanone], the IC50 under setting [1] lay in the range of 1000 to 10000 nM.
Compound `CC(=O)OCC(=O)N1[C@@H]2CC[C@H]1C[C@H](c1nc3c(-c4ccc(-c5ncc[nH]5)nc4)cnn3c(N)c1C(C)=O)C2` [Compound 6.9, 2-((1R,3s,5S)-3-(3-(6-(1H-imidazol-2-yl)pyridin-3-yl)-6-acetyl-7-aminopyrazolo[1,5-a]pyrimidin-5-yl)-8-azabicyclo[3.2.1]octan-8-yl)-2-oxoethyl acetate] came in with an IC50 under setting [2] of 100 to 1000 nM.
`CC(=O)c1c([C@@H]2C[C@H]3CC[C@@H](C2)N3C(=O)C(C)(C)O)nc2c(-c3ccc(-c4nccs4)nc3)cnn2c1N` [Compound 1.1.35, 1-((1R,3s,5S)-3-(6-acetyl-7-amino-3-(6-(thiazol-2-yl)pyridin-3-yl)pyrazolo[1,5-a]pyrimidin-5-yl)-8-azabicyclo[3.2.1]octan-8-yl)-2-hydroxy-2-methylpropan-1-one]: the IC50 under setting [1] lay within 100 to 1000 nM.
In turn, `CC(=O)c1c([C@@H]2C[C@H]3CC[C@@H](C2)N3C(=O)CO)nc2c(-c3cnc(-c4ncc[nH]4)c(F)c3)cnn2c1N` [Compound 6.28, 1-((1R,3s,5S)-3-(6-acetyl-7-amino-3-(5-fluoro-6-(1H-imidazol-2-yl)pyridin-3-yl)pyrazolo[1,5-a]pyrimidin-5-yl)-8-azabicyclo[3.2.1]octan-8-yl)-2-hydroxyethanone] returned an IC50 under setting [2] of 1 to 100 nM.
On to `CC(=O)c1c([C@@H]2C[C@H]3CC[C@@H](C2)N3C(=O)[C@@H](C)O)nc2c(-c3ccc(-c4nccs4)nc3)cnn2c1N` [Compound 1.1.34, (R)-1-((1R,3S,5S)-3-(6-acetyl-7-amino-3-(6-(thiazol-2-yl)pyridin-3-yl)pyrazolo[1,5-a]pyrimidin-5-yl)-8-azabicyclo[3.2.1]octan-8-yl)-2-hydroxypropan-1-one], for which, under setting [1], the IC50 is 100 to 1000 nM.
Turning to `CC(=O)c1c(N2CC3CCC(C2)N3C(=O)[C@@H](C)O)nc2c(-c3ccc(-c4ccccc4)nc3)cnn2c1N` [Compound 8.2, (2R)-1-(3-(6-acetyl-7-amino-3-(6-phenylpyridin-3-yl)pyrazolo[1,5-a]pyrimidin-5-yl)-3,8-diazabicyclo[3.2.1]octan-8-yl)-2-hydroxypropan-1-one], under “Homo sapiens, PC-3, PC3 cells”, the half-maximal inhibitory concentration (IC50) was in the range of 100 to 1000 nM.
Compound `CC(=O)c1c([C@@H]2C[C@H]3CC[C@@H](C2)N3C(=O)[C@H](C)O)nc2c(-c3ccc(-c4ncc[nH]4)nc3)cnn2c1N` [Compound 6.8, (S)-1-((1R,3R,5S)-3-(3-(6-(1H-imidazol-2-yl)pyridin-3-yl)-6-acetyl-7-aminopyrazolo[1,5-a]pyrimidin-5-yl)-8-azabicyclo[3.2.1]octan-8-yl)-2-hydroxypropan-1-one] gave an IC50 under setting [2] of 1 to 100 nM.
`CC(=O)c1c([C@@H]2C[C@H]3CC[C@@H](C2)N3C(=O)[C@H](O)CO)nc2c(-c3ccc(-c4ccccc4)nc3)cnn2c1N` [Compound 1.1.3, (R)-1-((1R,3S,5S)-3-(6-acetyl-7-amino-3-(6-phenylpyridin-3-yl)pyrazolo[1,5-a]pyrimidin-5-yl)-8-azabicyclo[3.2.1]octan-8-yl)-2,3-dihydroxypropan-1-one] returned an IC50 under setting [1] of 100 to 1000 nM.
Turning to `CC(=O)c1c([C@@H]2C[C@H]3CC[C@@H](C2)N3C(=O)c2ccn[nH]2)nc2c(-c3ccc(-c4ccc(F)cc4)nc3)cnn2c1N` [Compound 1.1.157, 1-(5-((1R,3s,5S)-8-(1H-pyrazole-5-carbonyl)-8-azabicyclo[3.2.1]octan-3-yl)-7-amino-3-(6-(4-fluorophenyl)pyridin-3-yl)pyrazolo[1,5-a]pyrimidin-6-yl)ethanone], under setting [1], the IC50 lay within 1 to 100 nM.
Consider `Nc1ncc(-c2cnn3c(N)cc([C@@H]4C[C@H]5CC[C@@H](C4)N5C(=O)c4nnc[nH]4)nc23)cn1` [Compound 8.88, ((1R,3s,5S)-3-(7-amino-3-(2-aminopyrimidin-5-yl)pyrazolo[1,5-a]pyrimidin-5-yl)-8-azabicyclo[3.2.1]octan-8-yl)(4H-1,2,4-triazol-3-yl)methanone], for which, for the setting “Homo sapiens, PC-3, PC3 cells”, the IC50 was greater than 10000 nM.
For `CC(=O)c1c(N2CC3CCC2CN3C(=O)c2nnc[nH]2)nc2c(-c3ccc(-c4ccccc4)nc3)cnn2c1N` (centres unmarked) [Compound 8.3, 1-(5-(5-(4H-1,2,4-triazole-3-carbonyl)-2,5-diazabicyclo[2.2.2]octan-2-yl)-7-amino-3-(6-phenylpyridin-3-yl)pyrazolo[1,5-a]pyrimidin-6-yl)ethanone], the IC50 (Homo sapiens, PC-3, PC3 cells) is 100 to 1000 nM.
For the setting “Table 3-1, PC3 cells”, `CS(=O)(=O)c1c([C@@H]2C[C@H]3CC[C@@H](C2)N3C(=O)CO)nc2c(-c3ccc(-c4ccc(F)cc4)nc3)cnn2c1N` [Compound 3.118, 1-((1R,3a,5S)-3-(7-amino-3-(6-(4-fluorophenyl)pyridin-3-yl)-6-(methylsulfonyl)pyrazolo[1,5-a]pyrimidin-5-yl)-8-azabicyclo[3.2.1]octan-8-yl)-2-hydroxyethanone] had an IC50 of 100 to 1000 nM.
With `CC(=O)c1c([C@@H]2C[C@H]3CC[C@@H](C2)N3C(=O)CO)nc2c(-c3cnc(-c4ncc[nH]4)c(C)c3)cnn2c1N` [Compound 6.33, 1-((1R,3s,5S)-3-(3-(6-(1H-imidazol-2-yl)-5-methylpyridin-3-yl)-6-acetyl-7-aminopyrazolo[1,5-a]pyrimidin-5-yl)-8-azabicyclo[3.2.1]octan-8-yl)-2-hydroxyethanone], the IC50 under setting [2] was in the range of 1000 to 10000 nM.
Regarding `CC(=O)c1c([C@H]2CC3CC[C@H](C2)N3C(=O)c2nnc[nH]2)nc2c(-c3cnc4c(c3)CCC4O)cnn2c1N` (stereo partly drawn) [Compound 7.60, 1-(5-((1R,3s,5S)-8-(4H-1,2,4-triazole-3-carbonyl)-8-azabicyclo[3.2.1]octan-3-yl)-7-amino-3-(7-hydroxy-6,7-dihydro-5H-cyclopenta[b]pyridin-3-yl)pyrazolo[1,5-a]pyrimidin-6-yl)ethanone], for the setting “Homo sapiens, PC-3, PC3 cells”, the IC50 was in the range of 100 to 1000 nM.
Consider `CC(=O)c1c([C@@H]2C[C@H]3CC[C@@H](C2)N3C(=O)c2cc(N)n[nH]2)nc2c(-c3ccc(-c4ncc[nH]4)nc3)cnn2c1N` [Compound 6.17, 1-(3-(6-(1H-imidazol-2-yl)pyridin-3-yl)-7-amino-5-((1R,3s,5S)-8-(3-amino-1H-pyrazole-5-carbonyl)-8-azabicyclo[3.2.1]octan-3-yl)pyrazolo[1,5-a]pyrimidin-6-yl)ethanone], for which the IC50 under setting [2] was 1 to 100 nM.
In turn, `CS(=O)(=O)c1c([C@@H]2C[C@H]3CC[C@@H](C2)N3C(=O)CO)nc2c(-c3ccc(C4(O)CCC4)nc3)cnn2c1N` [Compound 7.28, 1-((1R,3s,5S)-3-(7-amino-3-(6-(1-hydroxycyclobutyl)pyridin-3-yl)-6-(methylsulfonyl)pyrazolo[1,5-a]pyrimidin-5-yl)-8-azabicyclo[3.2.1]octan-8-yl)-2-hydroxyethanone] had an IC50 (Table 7-2, PC3 cells) of 100 to 1000 nM.
Where the note is “Homo sapiens, PC-3, Table 3-1, PC3 cells”, `CS(=O)(=O)c1c([C@@H]2C[C@H]3CC[C@@H](C2)N3C(=O)c2ccn[nH]2)nc2c(-c3ccc(-c4ccc(F)cc4)nc3)cnn2c1N` [Compound 3.121, ((1R,3s,5S)-3-(7-amino-3-(6-(4-fluorophenyl)pyridin-3-yl)-6-(methylsulfonyl)pyrazolo[1,5-a]pyrimidin-5-yl)-8-azabicyclo[3.2.1]octan-8-yl)(1H-pyrazol-5-yl)methanone] came in with an IC50 of 1 to 100 nM.
